Assays:
[1] = tested on: SCC-25 cells; experiment: Sonodynamic cytotoxicity, MTT test; format: cell-based, human; details: 40 µM; for Reduction of viability of SCC-25 cells, compound combined with US: 8 h, then US 3 min, 3 MHz, 0.8 W/cm^2, MTT 6 h later, compared to untreated cells
[2] = tested on: FaDu cells; experiment: Sonodynamic cytotoxicity, MTT test; format: cell-based, human; details: 40 µM, 8 h, then US 3 min, 3 MHz, 0.8 W/cm^2; MTT 6 h later; compared to untreated cells
Description: The cytotoxic effect and sonosensitising properties of selected synthesised chalcone derivatives were evaluated on human SCC-25 tongue and FaDu throat cancer cell lines using the MTT test (Figure 5 and Figure 6).
SCC-25 and FaDu human squamous cell carcinoma cell lines were purchased from the American Type Culture Collection (ATCC). The cells were cultivated in an incubator under optimal culture conditions (temperature: 37 °C; humidity: 95%; carbon dioxide content: 5%). The SCC-25 cell line was cultured in phenol red-free DMEM:F-12 medium complemented with 10% FBS, 2.5 mM L-glutamine, penicillin (100 U/mL), and streptomycin (0.1 mg/mL). The FaDu cells were maintained in phenol red-free Eagle’s Minimum Essential Medium (EMEM) supplemented with 10% fetal bovine serum (FBS), 2.5 mM L-glutamine, penicillin (100 U/mL), and streptomycin (0.1 mg/mL). For the experiments, confluent stock cultures were harvested using the trypsin–EDTA solution and seeded in 35-mm-diameter Petri plates at a density of 1 × 10^6. They were allowed to attach overnight, and the tested compounds were then added at a concentration of 40 µM. Control cells were maintained under the same conditions with 0.1% DMSO. […] The absorbance was measured using an Elx-800 plate reader (BioTek, Bad Friedrichshall, Germany) at 570 nm (reference wavelength 650 nm).

[3] = molecular target: T1, COX-2 (Homo sapiens, UniProt P35354); experiment: Effect on COX-2 activity; format: biochemical; details: samples 3 mM/dm^3 in DMSO, 0.02 mL; mean ± SEM, n = 3
T1 sequence (P35354 18-604): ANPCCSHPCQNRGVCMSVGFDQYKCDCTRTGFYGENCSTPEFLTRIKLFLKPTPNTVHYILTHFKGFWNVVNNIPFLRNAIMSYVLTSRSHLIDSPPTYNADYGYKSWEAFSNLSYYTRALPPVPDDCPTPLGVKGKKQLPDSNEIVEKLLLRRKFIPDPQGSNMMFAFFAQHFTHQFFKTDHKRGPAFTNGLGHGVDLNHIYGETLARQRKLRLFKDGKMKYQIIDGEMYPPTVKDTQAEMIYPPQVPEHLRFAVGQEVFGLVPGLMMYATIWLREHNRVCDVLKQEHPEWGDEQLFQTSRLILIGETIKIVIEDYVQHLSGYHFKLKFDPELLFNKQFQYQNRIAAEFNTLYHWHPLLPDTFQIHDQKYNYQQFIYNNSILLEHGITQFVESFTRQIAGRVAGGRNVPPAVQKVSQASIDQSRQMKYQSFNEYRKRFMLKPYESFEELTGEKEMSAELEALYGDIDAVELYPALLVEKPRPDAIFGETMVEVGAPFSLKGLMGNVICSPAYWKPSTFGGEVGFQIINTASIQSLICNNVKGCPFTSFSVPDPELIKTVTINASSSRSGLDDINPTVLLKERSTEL

[4] = tested on: glutathione peroxidase (GPx); experiment: Effect on GPx activity; format: biochemical; details: samples 3 mM/dm^3 in DMSO; mean ± SEM, n = 3
Description: (§1) We decided to extend the study by measuring the compounds’ ability to inhibit glutathione reductase (GR) and GPx activities, the human cells’ main endogenous enzymatic defence systems. Therefore, we checked the influence of some curcuminoid chalcones on GR and GPx using in vitro spectroscopic methods (Table 2). Moreover, the effects of curcuminoid chalcones on CAT activity were estimated (Table 2).
(§2) The samples were dissolved in DMSO (Sigma D4540) to obtain a concentration of 3 mM/dm^3.
(§3) The analyses were performed strictly as described by Studzińska-Sroka et al..

[5] = molecular target: T2, glutathione reductase (GR) (Homo sapiens, UniProt P00390); experiment: Effect on GR activity; format: biochemical; details: samples 3 mM/dm^3 in DMSO; mean ± SEM, n = 3
T2 sequence (P00390 44-522): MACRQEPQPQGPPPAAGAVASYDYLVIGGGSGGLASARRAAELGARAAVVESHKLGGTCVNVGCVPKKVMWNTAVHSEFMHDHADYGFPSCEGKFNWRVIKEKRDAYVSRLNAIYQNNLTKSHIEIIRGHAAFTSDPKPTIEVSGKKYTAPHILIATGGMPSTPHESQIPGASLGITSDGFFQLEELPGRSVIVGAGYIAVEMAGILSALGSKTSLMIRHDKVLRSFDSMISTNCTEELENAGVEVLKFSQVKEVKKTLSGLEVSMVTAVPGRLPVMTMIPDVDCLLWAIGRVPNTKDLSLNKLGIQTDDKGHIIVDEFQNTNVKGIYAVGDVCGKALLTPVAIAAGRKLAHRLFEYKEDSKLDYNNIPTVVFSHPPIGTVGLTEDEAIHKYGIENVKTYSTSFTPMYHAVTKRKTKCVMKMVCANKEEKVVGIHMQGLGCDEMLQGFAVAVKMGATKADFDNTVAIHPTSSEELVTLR
Description: as §1, §2, §3

[6] = molecular target: T3, catalase (CAT) (Aspergillus niger, UniProt P55303); experiment: Effect on CAT activity; format: biochemical; details: samples 3 mM/dm^3 in DMSO, 0.01 mL; mean ± SEM, n = 3
T3 construct: purchased Sigma C3515
Description: as §2
The method used by Watanabe et al. was used with the following modifications. The reaction mixture was composed of 0.02 mL of EDTA solution (56.5 mM), 0.01 mL of ^the sample, 0.02 mL of 3% H2O2 solution (Sigma H1009), and 0.02 mL of catalase solution (4000-fold diluted, Sigma C3515) (all reagents except the tested sample were diluted in TRIS buffer, pH 7.0, 1 mol/dm^3). The volume was completed to 0.31 mL by the same buffer solution. In a blank sample, DMSO (Sigma D4540) replaced the tested sample. The background of the sample was measured in a mixture composed of 0.01 mL of the sample completed to 0.31 mL by the buffer. The absorbance was read at 240 nm directly after the mixing and after 5 min of incubation (room temperature). The decreased absorbance (depletion of H2O2) in the tested and blank samples was compared. The calibration curve was produced using eleven H2O2 solutions (0.5693–5.693 mM/dm^3). The results are expressed in % inhibition and as H2O2 depletion (mmol of depleted H2O2/dm^3 min).

[7] = molecular target: AChE (Homo sapiens, UniProt P22303); experiment: Effect on AChE activity (modified Ellman's method); format: biochemical; details: samples 3 mM/dm^3 in DMSO, 0.035 mL; mean ± SEM, n = 3
Source text: Neurodegenerative diseases are associated with the progressive damage of neurons. During the development of these diseases, there is a loss of nerve cells and a deficiency of […], serotonin, and norepinephrine levels. The ability to inhibit acetyl- (AChE) and butyrylcholinesterase (BChE) activities is seen, among others, in organophosphorus compounds, carbamate insecticides, phenoxyacetic pesticides, and hydrogen peroxide, as well as aliphatic ketones with the carbons C4–C9, e.g., 2,5-hexandione. AChE and BChE show differences in their susceptibility to inhibitors, behaviour in situations involving excess substrate, or substrate binding specificity. Unlike, other esterases, both enzymes hydrolyse choline esters at very high speeds. Thus, in our work, the modified Elman’s method was used to investigate the anti-AChE and anti-BChE effects of curcuminoid chalcone.
as §2
The analysis was performed strictly as described by Studzińska-Sroka et al., except that the volume of the tested samples added to the reaction mixture was 0.035 mL.

[8] = molecular target: BChE (Homo sapiens, UniProt P06276); format: biochemical; details: samples 3 mM/dm^3 in DMSO, 0.035 mL; mean ± SEM, n = 3
[9] = Hydroxyl radical antioxidant capacity (HORAC); details: samples 1 mg/mL DMSO; mean ± SEM, n = 3
[10] = temperatures below 30 °C ref 43; cited from earlier work

T3 sequence (P55303 whole entry): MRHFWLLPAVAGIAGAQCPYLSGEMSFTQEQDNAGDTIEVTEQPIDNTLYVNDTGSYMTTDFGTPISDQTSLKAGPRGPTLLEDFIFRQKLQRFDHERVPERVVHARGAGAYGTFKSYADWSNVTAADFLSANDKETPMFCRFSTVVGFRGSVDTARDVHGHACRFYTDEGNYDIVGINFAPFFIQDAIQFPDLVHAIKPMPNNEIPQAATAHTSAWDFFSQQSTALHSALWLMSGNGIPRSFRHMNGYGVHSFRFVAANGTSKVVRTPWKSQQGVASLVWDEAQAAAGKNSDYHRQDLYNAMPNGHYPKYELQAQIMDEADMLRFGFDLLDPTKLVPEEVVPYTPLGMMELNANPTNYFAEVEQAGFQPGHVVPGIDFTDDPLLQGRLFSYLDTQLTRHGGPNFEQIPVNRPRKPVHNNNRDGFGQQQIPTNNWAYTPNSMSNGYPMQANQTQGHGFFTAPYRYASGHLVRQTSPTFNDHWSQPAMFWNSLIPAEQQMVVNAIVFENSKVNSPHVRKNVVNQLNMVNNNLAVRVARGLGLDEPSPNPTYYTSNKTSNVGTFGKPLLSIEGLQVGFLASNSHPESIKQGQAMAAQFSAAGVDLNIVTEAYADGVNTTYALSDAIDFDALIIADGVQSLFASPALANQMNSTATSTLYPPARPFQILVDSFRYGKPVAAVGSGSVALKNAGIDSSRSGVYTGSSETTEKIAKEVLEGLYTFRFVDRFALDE
BChE, sequence (P06276 29-602, species assumed): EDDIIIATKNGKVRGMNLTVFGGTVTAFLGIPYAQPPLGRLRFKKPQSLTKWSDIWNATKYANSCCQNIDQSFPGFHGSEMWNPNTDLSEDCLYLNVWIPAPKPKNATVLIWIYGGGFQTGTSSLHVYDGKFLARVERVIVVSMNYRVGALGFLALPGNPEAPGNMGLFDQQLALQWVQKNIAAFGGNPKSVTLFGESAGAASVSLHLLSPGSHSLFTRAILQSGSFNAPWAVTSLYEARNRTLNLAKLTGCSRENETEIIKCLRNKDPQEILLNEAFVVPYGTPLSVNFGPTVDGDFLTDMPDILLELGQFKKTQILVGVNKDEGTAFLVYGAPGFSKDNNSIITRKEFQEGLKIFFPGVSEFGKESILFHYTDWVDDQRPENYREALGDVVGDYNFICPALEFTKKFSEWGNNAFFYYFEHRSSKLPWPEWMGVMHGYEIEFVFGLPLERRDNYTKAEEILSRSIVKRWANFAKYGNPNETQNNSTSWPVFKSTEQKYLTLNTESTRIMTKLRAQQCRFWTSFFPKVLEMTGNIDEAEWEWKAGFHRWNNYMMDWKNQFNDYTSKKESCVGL
AChE, sequence (P22303 32-614): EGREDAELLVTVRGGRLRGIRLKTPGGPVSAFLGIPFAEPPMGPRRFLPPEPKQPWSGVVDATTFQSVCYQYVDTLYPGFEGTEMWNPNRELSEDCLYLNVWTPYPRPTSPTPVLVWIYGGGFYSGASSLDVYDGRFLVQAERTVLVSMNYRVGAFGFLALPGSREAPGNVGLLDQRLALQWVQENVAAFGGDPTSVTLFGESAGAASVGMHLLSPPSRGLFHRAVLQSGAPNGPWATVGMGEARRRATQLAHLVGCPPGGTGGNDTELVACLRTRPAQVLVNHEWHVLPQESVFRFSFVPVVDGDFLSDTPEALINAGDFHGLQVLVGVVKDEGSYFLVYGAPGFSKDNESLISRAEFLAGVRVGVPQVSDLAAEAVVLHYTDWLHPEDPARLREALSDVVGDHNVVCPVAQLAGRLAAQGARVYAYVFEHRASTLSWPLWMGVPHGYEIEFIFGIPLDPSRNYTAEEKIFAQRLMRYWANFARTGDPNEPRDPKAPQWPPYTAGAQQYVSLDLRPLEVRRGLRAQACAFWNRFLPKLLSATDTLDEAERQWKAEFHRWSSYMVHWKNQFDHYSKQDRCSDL

Compound | Reduction of viability of SCC-25 cells, compound combined with US [1] | Reduction of viability of SCC-25 cells, compound alone ([1]; MTT, compared to control) | Inhibition of viability of FaDu cells, compound combined with US [2] | Equivalent Concentration of Acetylsalicylic Acid (COX-2) [3] [mg/mL] | GPx Inhibition (%) [4] | GPx activity (NADPH consumption rate) [4] [nmol Depleted NADPH/min] | GR Inhibition (%) [5] [%] | GR activity (NADPH consumption rate) [5] [nmol Depleted NADPH/min] | CAT Inhibition (%) [6] [%] | CAT Inhibition of the H2O2 Depletion [6] [mm/dm^3/min] | AChE % (inhibition) [7] [%] | AChE, Equivalent Concentration of Reference Compound Magniflorine [7] [µg/mL] | AChE, Equivalent Concentration of Reference Compound Rivastigmine [7] [µg/mL] | BChE % (inhibition) [8] [%] | BChE, Equivalent Concentration of Reference Compound Magniflorine [8] [µg/mL] | BChE, Equivalent Concentration of Reference Compound Rivastigmine [8] [µg/mL] | HORAC, Gallic Acid Equivalents [9] [µg/mL] | pH of greatest stability of water solutions [10] | COX-2 Inhibition (%) [3]
COc1cc(/C=C/C(=O)c2ccccc2)ccc1O [Compound 1, 3-(4-hydroxy-3-methoxyphenyl)-1-phenylprop-2-en-1-one] | ~ 40% | no significant difference | significantly reduced viability | 6.1 ± 0.1 | 30.3 ± 3.6% | 60.3 ± 7.1 | 7.6 ± 2.4 | 286 ± 90 | 78.6 ± 2.8 | 0.26 ± 0.01 | 80.5 ± 8.2 | 0.31 ± 0.03 | 0.46 ± 0.05 | 78.0 ± 4.6 | 0.30 ± 0.02 | 0.23 ± 0.01 | 18.7 ± 3.8 |  | 
CC(C)Cc1ccc(C(C)C(=O)O)cc1 (centres unmarked) [Compound 4, ibuprofen, reference compound] | no significant difference |  | no significant difference |  |  |  | 19.9 ± 1.1 | 747 ± 41 |  |  |  |  |  |  |  |  | 35.7 ± 4.2 | 5–7 | 
O=C(/C=C/c1ccccc1)c1ccccc1 [Compound 5] |  |  |  |  | did not inhibit and - |  | 29.1 ± 4.4 | 1093 ± 165 | 12.5 ±2.4 | 0.03 ± 0.01 | 65.7 ± 4.7 | 0.25 ± 0.02 | 0.37 ± 0.03 | 58.1 ± 3.4 | 0.23 ± 0.01 | 0.17 ± 0.01 | 6.1 ± 2.5 |  | -
COc1ccc(/C=C/C(=O)c2ccccc2)cc1O [Compound 7, E-3-(3-hydroxy-4-methoxyphenyl)-1-phenylprop-2-en-1-one] |  |  |  | 7.7 ± 0.1 | 32.4 ± 2.8% | 64.4 ± 5.5 | 41.8 ± 3.1 | 1570 ± 116 | 88.1 ± 4.0 | 0.22 ± 0.01 | 89.8 ± 5.8 | 0.34 ± 0.01 | 0.51 ± 0.03 | 94.4 ± 4.1 | 0.37 ± 0.02 | 0.27 ± 0.01 | 11.5 ± 1.3 |  | 
